Measured values from a compilation of properties of binary mixtures (doi:10.1016/j.molliq.2020.112754).

Test: xn = mol fraction of the nth substance listed
Details: 100 kPa

CCCCCC[N+]1(C)CCCC1.O=S(=O)([N-]S(=O)(=O)C(F)(F)F)C(F)(F)F + Cc1ccccc1
viscosity [mPa·s]
Details	x2 = 0	x2 = 0.0942	x2 = 0.1943	x2 = 0.29	x2 = 0.3938	x2 = 0.493	x2 = 0.5961	x2 = 0.6986	x2 = 0.7993
293.15 K	136.2	103.1	77.3	55.6	–	24.39	14.74	8.36	–
298.15 K	102.8	79.3	61.2	44.91	30.92	20.68	12.89	7.61	3.838
303.15 K	79.6	62.3	48	36.7	25.95	17.85	–	6.93	3.477
308.15 K	63.1	50.2	39.6	–	22.17	15.66	10.64	6.49	–
313.15 K	–	40.96	32.72	25.67	19.3	14.05	9.54	5.88	2.944

CCCC[n+]1ccccc1.O=S(=O)([N-]S(=O)(=O)C(F)(F)F)C(F)(F)F + Cc1ccccc1
viscosity [mPa·s]
Details	x2 = 0	x2 = 0.0994	x2 = 0.2022	x2 = 0.2939	x2 = 0.3972	x2 = 0.5025	x2 = 0.6068	x2 = 0.7033
293.15 K	68.9	54.2	41.67	31.52	–	15.1	–	6.11
298.15 K	–	42.92	33.54	25.9	19	–	9.09	5.53
303.15 K	41.94	34.61	27.6	–	16.23	11.99	8.21	5.19
308.15 K	33.75	28.44	22.89	18.36	–	–	7.48	4.96
313.15 K	27.63	23.67	19.28	15.83	–	9.23	–	4.293

Cc1ccccc1 + CCCCCC[N+]1(C)CCCC1.O=S(=O)([N-]S(=O)(=O)C(F)(F)F)C(F)(F)F
x1 = 1
Details	viscosity [mPa·s]
293.15 K	0.598
298.15 K	0.569
303.15 K	0.539
313.15 K	0.495

CCCC[N+]1(C)CCCC1.O=S(=O)([N-]S(=O)(=O)C(F)(F)F)C(F)(F)F + Cc1ccccc1
viscosity [mPa·s]
Details	x2 = 0	x2 = 0.1093	x2 = 0.1978	x2 = 0.3041	x2 = 0.3965	x2 = 0.5054	x2 = 0.6027	x2 = 0.7066
293.15 K	90.2	66.9	51.5	36.61	26	17.04	11.02	6.26
298.15 K	–	52.3	41.5	29.96	21.88	–	–	5.73
303.15 K	56.2	42.87	34.07	–	–	13.06	9.11	5.28
308.15 K	45.8	34.88	28.4	21.58	16.48	11.86	8.4	5.05
313.15 K	–	29.43	24.08	–	–	10.63	7.58	–

Cc1ccccc1 + CCCC[N+]1(C)CCCC1.O=S(=O)([N-]S(=O)(=O)C(F)(F)F)C(F)(F)F
x1 = 1
Details	viscosity [mPa·s]
293.15 K	0.598
298.15 K	0.569
303.15 K	0.539
313.15 K	0.485

Cc1ccccc1 + CCCC[n+]1ccccc1.O=S(=O)([N-]S(=O)(=O)C(F)(F)F)C(F)(F)F
x1 = 1
Details	viscosity [mPa·s]
293.15 K	0.598
298.15 K	0.569
303.15 K	0.539
308.15 K	0.509
313.15 K	0.485
